{"source": "patent EP0415598A1", "about": "“Cosmetic composition” (UNILEVER PLC, priority 1989, dated 1991)", "tested_on": "hair growth", "experiment": "Rat Hair Growth Test (topical application to clipped skin, cumulative hair weight)", "assay_type": "in vivo, male albino Wistar rats", "protocol": "The effect of compounds on hair growth was assessed using male albino Wistar rats as an animal model. The rats were chosen from as few litters as possible and were each approximately 42 days of age at the start of the test. Each rat was housed individually to prevent licking.\nIn each comparison, 10 rats were used in each group and hair growth was assessed as follows:\nA small patch of normal skin (4cm x 4cm) on the upper back of each rat was clipped at the start and 0.3 ml of a hair growth stimulant composition (or a control) applied topically twice daily and once on Saturdays and Sundays to each clipped area. The concentration of test compound in the composition was chosen from 0.01 to 20% by weight.\nIn any case, this concentration will lie within the range of from 0.01 to 20% by weight as stipulated above.\nHair was clipped from the area of the patch twice weekly, collected and weighed at each time point over a standard period of 3 months, and cumulative hair weight calculated. […] A positive response, i.e. an increase of at least 10% by weight of hair after 3 months treatment, compared with a control indicates the potential of the test compound to prevent hair loss and/or reverse baldness in human subjects.\nIn this example, the effect of topical application of N-acetyl glycine is shown. […]", "data": [{"smiles": "CC(=O)NCC(=O)O", "note": "[N-acetyl glycine]", "values": [{"measurement": "increase in hair growth", "setting": "10% (w/v) N-acetyl glycine vs control (distilled water, pH 4.2), after 58 days, statistically significant", "value": 23, "unit": "%"}, {"measurement": "Mean Cumulative Hair Weight (mg) ± sd, after 58 days", "setting": "10% (w/v) solution in distilled water adjusted to pH 4.2 with potassium hydroxide, topical, 0.3 ml twice daily, 58 days, control 505.9 ± 103.1, p =0.02 vs control", "value": "622.8 ± 101.11", "unit": "mg"}]}]}
